# Laboratory results from US20220290184A1, “DONOR PIGS FOR XENOTRANSPLANTATION” (NZENO LIMITED, priority 2019, published 2022).
# Entries after “also recorded” stand apart in the source; their conditions may differ. Marks after values point to notes of the source that are not given here. Where a SMILES comes first, the peptide text is derived from it. The star is where a group is joined. Cbz = O=C(OCc1ccccc1)*
# Tests used:
# Assay type in all cases: cell-based, pig
# [1] = tested on: CMAH gene; experiment: CRISPR activity assay with TIDE analysis, CMAH target locus
# Method: Cell culture and transfection was performed as described in Example 4 section 4.1.2.
# The CRISPR activity assay was performed as described in Example 4 section 4.1.3 using the CMAH-specific CRISPRs (68rev, 165fw) and CMAH primers (CMAHF-[…] (SEQ ID NO: 48) and CMAHR-[…]3 (SEQ ID NO: 49)).
# [2] = tested on: porcine SCNT embryos; experiment: Zona-free somatic cell nuclear transfer (SCNT) embryo development in vitro
# Method: Ovaries were sourced from pre-pubertal gilts slaughtered at the Ruakura abattoir (AgResearch, New Zealand). Cumulus-oocyte complexes (COCs) were recovered by follicular aspiration and matured in vitro (IVM) for 44 h. Two IVM systems to mature porcine oocytes were compared: biphasic (ESOF and LSOF) IVM1/2 medium containing 1 mM dibutyryl cyclic adenosine monophosphate for the first 20-24 h (Bagg et al., 2006; Somfai and Hirao, 2011) and FLI medium supplemented with FGF2, LIF and IGF1 for the entire IVM period (Yuan et al., 2017).
# COCs were denuded by vortexing with 0.1% hyaluronidase (Sigma) at 2000 rpm for about 60-90 sec. Oocytes were washed twice in HEPES-buffered TCM199 medium (H199)+10% FCS. Denuded oocytes were incubated for 10 min with 0.2M sucrose in H199+10% FCS. Oocytes that maintained a regular, round shape (but smaller diameter) along with a first polar body (1PB) were selected for use.
# For zona-free SCNT, pronase was used to remove the zona pellucida. Oocytes were washed thoroughly before staining DNA with 5 μg/mL H33342 plus 7.5 μg/mL cytochalasin B (all Sigma) for 5 min. A 24 μm outer diameter blunt-ended pipette was used for UV-assisted enucleation of metaphase II stage oocytes at 35° C.
# Donor cells (e.g. NZK1 kidney fibroblasts) were trypsinised to a single cell suspension after 5-7 days in medium with 0.5% FCS. Single cells were adhered to each enucleated cytoplast with the aid of 20 μg/mL phytohemagglutinin in H199+3 mg/mL BSA. […] Following fusion, reconstructed embryos were held in embryo culture medium without Ca+10% FCS+5 μg/mL cytochalasin B at 38.5° C. in 5% CO2 in air for 2-4 h before activation.
# To maintain high levels of maturation promoting factor-cyclin B complex in oocytes aiding nuclear reprogramming, some experiments compared the addition of 5 μM of the proteasome inhibitor MG132 (Sigma). This was added to media formulations from the time of sucrose selection of oocytes until activation of NT reconstructed embryos (Le Bourhis et al., 2010).
# Activation of reconstructed NT embryos was initiated with three direct current pulses of 1.0-1.5 kV/cm for 80 μs each, in buffer containing 0.1 mM calcium, ˜50-52 h after the start of IVM.
# Within 5 min of electrical stimulation, reconstructed embryos were transferred to culture medium (e.g. ESOF) supplemented with 2 mM 6-dimethylaminopurine+5 μg/mL cytochalasin B and cultured individually in 5 μL drops for 3 h at 38.5° C. In 5% CO2. Afterwards, embryos were washed thoroughly in HEPES SOF before in vitro culture for 6-7 days. […] Embryo development was assessed on Day 6 or 7 and the numbers of nuclei in resulting blastocysts determined in selected experiments.
# [3] = tested on: parthenogenetically activated porcine oocytes; experiment: Parthenogenetic oocyte activation (PG) embryo development in vitro; details: PG embryos; 5 μM MG132 from oocyte selection until activation
# [4] = SCNT embryos, 5 μM MG132 from oocyte selection until activation
Molecule,CRISPR activity compared to the second CMAH CRISPR 165fw [1],"Benefit in terms of in vitro development following SCNT or PG ([2]; 5 μM MG132 between oocyte selection and activation, preliminary experiment)","Blastocyst Development Day 7 [2, 4] [%^b]","Cleavage [2, 4] [%]","Fusion [2, 4] [%]",Blastocyst Development Day 7 [3] [%],Cleavage [3] [%]
"68rev: guide RNA targeting exon 3 of CMAH, TAAGAATAAGAGCCGCCTGA (SEQ ID NO: 46) (listed as DNA, chemistry not given here)",higher activity,,,,,,
CC(C)C[C@@H](C=O)NC(=O)[C@H](CC(C)C)NC(=O)[C@H](CC(C)C)NC(=O)OCc1ccccc1 [MG132] (Cbz-Leu-Leu-Leu-aldehyde),,unable to show any benefit; also recorded: showed no benefit,11,99,49,23,100
